Source: PubChem BioAssay AID1996
Converted amounts (≈) assume the structure as drawn.

Conditions: buffer; pH 7.4; 200.0 µM

solubility kinetic [µg/mL] | Compound
> 31.1 | N#C/C(=C\c1ccccn1)c1ccccn1
53.1 | CN1CCC(=C(c2ccccc2)c2ccc(Br)cc2)CC1.Cl
> 47 | CN(c1ccc(O)cc1)S(=O)(=O)c1ccc2ccccc2c1
7.1 (≈ 23 µM) | O=C(NCCc1ccccc1)c1ccc(-c2ccc(F)cc2)o1
1.8 (≈ 5.01 µM) | O=C(Nc1ccccc1)N1CCc2c([nH]c3ccccc23)C1C(F)(F)F (stereo not given)
> 32.1 | O=[N+]([O-])c1ccc(Cc2ccccn2)cc1
0.3 (≈ 0.979 µM) | CSC(=Nc1ccccc1)C(C#N)c1nc2ccccc2[nH]1 (stereo not given)
49.5 (≈ 139 µM) | COc1ccc(OCC(=O)Nc2ccccc2N2CCN(C)CC2)cc1
> 56.7 | O=C(COC(=O)Cc1c(F)cccc1Cl)Nc1ccc2[nH]c(=O)[nH]c2c1
> 57.5 | COc1ccc(CN2CCOCCOCCOCCOCCOCC2)cc1
4.5 (≈ 12.5 µM) | CCC1CN(C(=O)NCc2cccc(OC)c2)c2cc(Cl)ccc2O1 (stereo not given)
> 40.5 | O=C(O)C1CSC(c2ccc(O)c([N+](=O)[O-])c2)N1 (stereo not given)
47.8 (≈ 124 µM) | COc1cc(CN2CCN(Cc3cccc(OC)c3OC)CC2)cc(OC)c1
1.5 (≈ 4.58 µM) | CNC(=S)N(CCc1c(C)[nH]c2ccccc12)Cc1ccco1
> 40.1 | COc1ccccc1NS(=O)(=O)c1cn(C)cn1
35.7 (≈ 146 µM) | Cc1nc(C(N)=O)c(N)n1CCc1ccccc1
9.1 (≈ 23.6 µM) | Nc1nonc1OCCN1CCN(c2ccc([N+](=O)[O-])c3cccnc23)CC1
12.2 (≈ 36.9 µM) | O=S(=O)(Nc1nc2ccc(Cl)cc2s1)c1cccs1
> 46 | COC(=O)c1ccc(NC(=O)C[n+]2ccccc2)cc1.[Cl-]
1.3 (≈ 4.85 µM) | O=[N+]([O-])c1ccc(-c2nc(-c3ccncc3)no2)cc1
31.2 (≈ 115 µM) | O=C(CSC1=NCCS1)c1ccc(Cl)cc1
0.7 (≈ 2.79 µM) | Cn1c2ccc(F)cc2c2nc3ccccc3nc21
4 (≈ 12.2 µM) | CCN(C(=O)c1ccc2c(c1)OCO2)C12CC3CC(CC(C3)C1)C2
> 39.6 | NC(=O)c1ccc(N2CCNC(=O)C2)c([N+](=O)[O-])c1

solubility kinetic [µg/mL] | Compound
4.5 (≈ 13.2 µM) | COCCNC(=O)c1cc2c(s1)-c1ccc(Cl)cc1SC2
49.1 (≈ 144 µM) | NS(=O)(=O)c1cc(C(=O)NCCc2ccccn2)ccc1Cl
> 42.2 | Cc1ccc(CNS(=O)(=O)c2ccc(C)s2)cc1
> 45.2 | COc1ccc(CCNC(=S)c2ccccc2)cc1OC
> 38.6 | O=C(O)/C=C/C(=O)Nc1ccc(OC(F)F)cc1
17.7 (≈ 61.6 µM) | CC(C)=CC1C(C(=O)NCCOc2ccccc2)C1(C)C (stereo not given)
21.2 (≈ 61.2 µM) | COc1ccc(Nc2nc(N)c([N+](=O)[O-])c(N3CCOCC3)n2)cc1
0.9 (≈ 3.55 µM) | O=C(OCc1ccccc1)N1CCc2ccccc21
> 51.2 | O=C(COC(=O)c1cc(=O)c2ccccc2o1)Nc1ccccc1F
37.6 (≈ 126 µM) | O=C(COc1cccc2cccnc12)NCc1cccs1
1.5 (≈ 4.5 µM) | CC(=O)c1ccccc1NS(=O)(=O)c1cccc2nsnc12
> 53 | COc1cc(C(=O)NC(=S)N2CCN(C)CC2)cc(OC)c1OC
> 58.6 | CCCCOP(=O)(c1ccc(N(C)C)cc1)C(O)c1ccc(N(C)C)cc1 (stereo not given)
2 (≈ 5.64 µM) | Cc1ccc(NC(=O)c2cccs2)cc1NC(=O)c1ccc(F)cc1
1.3 (≈ 4.99 µM) | CC(C)CC(=O)N/C(N)=N/c1nc2ccccc2o1
30.2 (≈ 110 µM) | NC(=O)COC(=O)CCSc1ccc(Cl)cc1
> 50.5 | O=C(c1ccccc1)N1CCN(S(=O)(=O)c2cccs2)CC1
20.7 (≈ 57.2 µM) | O=C(COC(=O)C1(c2ccc(Cl)cc2)CCCC1)NCc1ccco1
59.1 (≈ 136 µM) | COc1ccc2c(COC(=O)[C@H](C)NS(=O)(=O)c3ccccc3F)cc(=O)oc2c1
11.5 (≈ 33.4 µM) | CCOC(=O)c1csc(NC(=O)c2cc(=O)c3ccccc3o2)n1
> 56 | Cn1nc(C(F)(F)F)c(-c2ccccc2)c1NC(=O)CSCC(=O)O
1.3 (≈ 4.26 µM) | Cc1nc([N+](=O)[O-])cn1CC(=O)Nc1ccc([N+](=O)[O-])cc1
10.3 (≈ 31.5 µM) | Cc1nc(CNS(=O)(=O)c2cc([N+](=O)[O-])ccc2C)cs1
1 (≈ 2.83 µM) | COc1ccc(-c2nc(N)ncc2-c2ccc(OC)c(OC)c2)c(O)c1

solubility kinetic [µg/mL] | Compound
> 44.3 | CN1CCN(c2ccc(NC(=O)c3ccccc3)cc2)CC1
> 48.2 | Cc1ccc2nc(-c3ccccc3)c(CC(=O)O)c(C(=O)O)c2c1
> 47.9 | CC(C)(C)NC(=O)C(OC(=O)c1ccco1)c1ccccc1F (stereo not given)
41.1 (≈ 144 µM) | COc1ccc(CCNC(=S)Nc2ccccc2)cc1
> 48.1 | CC1CN(C(=O)COC(=O)c2ccc(N(C)C)cc2)CC(C)O1 (stereo not given)
37.8 (≈ 108 µM) | OCCN1CCN(c2nc(-c3ccccc3O)nc3ccccc23)CC1
42.8 (≈ 136 µM) | COc1ccc(C(=O)NCCCNC(=O)c2cnccn2)cc1
38.7 (≈ 128 µM) | Cc1ccc(NC(=O)CCCN2C(=O)NC(C)(C)C2=O)cc1
> 49.3 | CCN1CC(CN(C)Cc2nc(Cc3ccccc3)no2)CC1=O (stereo not given)
19.6 (≈ 62.7 µM) | CC(CCN1CCN(c2ccc(F)cc2)CC1)c1ccccc1 (stereo not given)
3.4 (≈ 11.5 µM) | COc1ccc(C(=O)N2CC(c3ccccc3)CC2=O)cc1 (stereo not given)
> 44.2 | CC1CCN(C(=O)CCCC(=O)N2CCC(C)CC2)CC1
56 (≈ 145 µM) | COc1ccc(CN(C)CC(=O)Nc2ccccc2C(=O)NC2CC2)cc1F
> 36.8 | C/C(=N\NC(=O)c1ccncc1)c1cccs1
0.7 (≈ 2.52 µM) | CCCCNC(=O)Nc1nc2ccc(CC)cc2s1
> 41 | O=C(O)c1ccccc1C(=O)NCCCn1ccnc1
0.7 (≈ 2.58 µM) | Cn1cccc1C(=O)OCc1ccc(C(C)(C)C)cc1
> 47.5 | CC(=O)Nc1ccccc1OCC(=O)NCCC1=CCCCC1
0.9 (≈ 2.66 µM) | Cc1ccc(C)c(OCC(=O)Nc2ccccc2C(=O)NC2CC2)c1
< 0.6 | O=c1oc(-c2ccc(Br)cc2)nc2ccccc12
< 0.3 | Cc1cc(C)nc(S/C=C/C(=O)c2ccc(F)cc2)n1
38.2 (≈ 147 µM) | CC(=O)c1ccccc1OCC(O)Cn1ccnc1 (stereo not given)
> 44.9 | O=C(COC(=O)c1ccco1)NC1CCCc2ccccc21 (stereo not given)
0.9 (≈ 3 µM) | O=C(Nc1ccc([N+](=O)[O-])cc1)C1COc2ccccc2O1 (stereo not given)

solubility kinetic [µg/mL] | Compound
> 43.1 | O=C(O)CCN=CC1=C(O)CC(c2ccccc2)CC1=O (stereo not given)
4.6 (≈ 13.3 µM) | COc1ccccc1OCC(=O)Nc1sc2c(c1C(N)=O)CCC2
3.9 (≈ 11.7 µM) | CC(=O)c1c(C)[nH]c(C(=O)COC(=O)c2ccc(Cl)nc2)c1C
10.7 (≈ 41.8 µM) | Clc1ccc(Oc2ccccc2)c2ncccc12
> 46 | Cn1c(SCC(=O)NC2CCCC2)nnc1-c1ccco1
> 54.2 | COc1ccccc1Nc1nc(NCCCN(C)C)nc(N)c1[N+](=O)[O-]
> 37.8 | Cc1nc2ccccc2n1CCOc1ccccc1
> 18.2 | NC(=O)c1ccccc1
30.2 (≈ 123 µM) | Cc1ccccc1C(=O)NC1CCCCCCC1
< 0.6 | Cc1ccc(NC(=O)c2cc3ccccc3cc2O)cc1
> 49.4 | C=CCNC(=O)c1ccccc1NC(=O)C1CC(=O)N(C(C)C)C1 (stereo not given)
> 42.9 | O=C1C2CCCN2C(c2ccco2)N1c1ccc(F)cc1 (stereo not given)
36.6 (≈ 88.1 µM) | O=C(c1ccncc1)N1CCN(S(=O)(=O)c2ccc(OC(F)(F)F)cc2)CC1
> 40.4 | COc1ccc(OC)c(C(=O)/C=C/c2cccnc2)c1
1.8 (≈ 5.26 µM) | COc1ccccc1C(=O)N=c1sc2c(C)ccc(OC)c2n1C
18.7 (≈ 58.5 µM) | O=C(NC1CCC(O)CC1)c1ccc(-c2ccc(Cl)cc2)o1 (stereo not given)
< 0.6 | O=Cc1ccc(OCCOc2ccc([N+](=O)[O-])cc2)cc1
> 31.1 | O=C(Oc1ccccc1)N1CCOCC1
35.2 (≈ 113 µM) | Cc1cccc(C)c1N(CC(=O)N1CCCC1)S(C)(=O)=O
4.5 (≈ 14.5 µM) | O=C(OCC(=O)N1CCc2ccccc2C1)c1ccc(O)cc1
> 51.4 | C=C(C)CN(CC)Cc1c(C(=O)N(C)CCCC)nc2ccccn12
10.2 (≈ 31.4 µM) | COc1ccc(NCC(O)Cn2c(C)c(C)c3ccccc32)cc1 (stereo not given)
12.8 (≈ 41.6 µM) | O=[N+]([O-])c1ccc(S(=O)(=O)NCCc2ccncc2)cc1
> 43.7 | COc1cc(C(=O)O)cc(NC(=O)c2ccco2)c1OC

solubility kinetic [µg/mL] | Compound
1.7 | CCOC(=O)c1ccc(Nc2ncnc3ccccc23)cc1.Cl
> 49.7 | CCCN1C2CCCC1CC(NC(=S)Nc1cccc(C)c1)C2 (stereo not given)
8.7 (≈ 22.4 µM) | CN(CC(=O)Nc1sccc1C(N)=O)S(=O)(=O)c1ccc(Cl)cc1
3.7 (≈ 12.1 µM) | COC(=O)c1ccc(/C=C/c2nc3ccccc3c(=O)[nH]2)cc1
> 45.8 | CCc1nc(SCC(=O)Nc2ccc(N(C)C)cc2)n[nH]1
13.9 (≈ 43.7 µM) | Cn1c(=O)c2c(ncn2CCOc2ccc(F)cc2)n(C)c1=O
2.4 (≈ 8.56 µM) | O=[N+]([O-])c1ccc(COc2cccc3cccnc23)cc1
2.8 (≈ 9.01 µM) | O=C(NC(=O)c1ccc(F)cc1F)Nc1ccc(Cl)cc1
14.9 (≈ 45.5 µM) | CC(NC(=O)COC(=O)c1ccc2c(c1)OCO2)c1ccccc1 (stereo not given)
> 41.1 | COC(=O)CCNC(=O)c1ccc2[nH]c(C)c(C)c2c1
2 | Cc1cc(C)c2c(CN3CCCCC3C)cc(=O)oc2c1.Cl (stereo not given)
5.4 (≈ 19.8 µM) | O=C(Nc1ccno1)Nc1ccc(Cl)cc1Cl
37.1 (≈ 120 µM) | O=S(=O)(NCc1ccc2c(c1)OCO2)c1ccccc1F
> 39 | COC(=O)c1cc(Br)c(N)cc1OC
17.2 (≈ 57.1 µM) | COc1ccc(NC(=O)CCCSc2ccccc2)cc1
1.9 (≈ 5.23 µM) | COc1cc2c(cc1OC)-c1cc(Nc3ccc(C)cc3)nc(=O)n1CC2
> 38 | CC(C)OCCCNC(=O)Cc1ccc(F)cc1
2.6 (≈ 9.24 µM) | CC(=O)Oc1ccc(-c2nc3ccccc3c(=O)o2)cc1
> 47.3 | COc1cc2c(cc1OC)C(C)N(C(=O)c1ccc(C)o1)CC2 (stereo not given)
18.1 (≈ 50.1 µM) | CCOC(=O)N1CCN(C(=S)NC(=O)/C=C/c2ccc(C)cc2)CC1
2 (≈ 6.09 µM) | CC(CNC(=O)c1ccc2c(c1)OCO2)c1ccc([N+](=O)[O-])cc1 (stereo not given)
33.6 (≈ 116 µM) | Cc1ccc(NS(=O)(=O)c2ccc(Cl)s2)nc1

Compound | solubility kinetic [µg/mL]
Nc1cc2nc3ccccc3nc2cc1N | 5.1 (≈ 24.3 µM)
COc1cccc(CNCc2ccccc2OC)c1.O=C(O)C(=O)O | 28.9
